This is an account of results in patent US10828284B2, “Compositions and methods for treating conditions related to elevated levels of eosinophils and/or basophils” (Knopp Biosciences LLC, priority 2013, dated 2020).

Where two headings read alike, the source gives them in different places.

Series [1] has as its system eosinophils. The method, then: In a 39-week repeat-dose toxicology study, minipigs were dosed at 0, 7.5, 25, and 75 mg/kg dexpramipexole by daily oral gavage through Study Day 45 and at 0, 7.5, 25, and 50 mg/kg dexpramipexole from Study Day 46 to study completion.
The next series has as its system basophils. Particulars: 300 mg daily, remained reduced through month 12. The method, then: (§1) The phase 3 clinical trial was a double-blind study of dexpramipexole in ALS patients randomized 1:1 to placebo or dexpramipexole 300 mg daily treatment. Hematology parameters were collected as part of routine safety monitoring. Eosinophil and basophil counts were retrospectively analyzed by visit.
Changes in basophil counts were also analyzed in the Phase 3 trial.

For series [2], the system named is eosinophils. Particulars: for mean eosinophils at week 16 recovered to, of baseline levels: after one-month washout following week 12. The method, then:
The Phase 2 trial was a two-part, double-blind study that evaluated the safety, tolerability, and clinical effects of dexpramipexole in ALS patients.
In Part 1, subjects were randomized to placebo (n=27), 50 mg/day (n=23), 150 mg/day (n=26), or 300 mg/day dexpramipexole (n=26) for 12 weeks.

Series [3] concerns eosinophils. The conditions noted are these: OVA mice, 100 mg/kg, day 42, p=0.0041.
The subject of series [4] is infiltrating white blood cells. Particulars: OVA mice, 30 and 100 mg/kg, day 42, compared to OVA.
The conditions of series [5]: humans, exposures up to 18 months.
The test system of series [6] is eosinophils. The method, then: as §1
Eosinophil levels were summarized over available time points and analyzed by ANOVA testing the effect of treatment vs. placebo on mean changes in serum eosinophil counts from baseline. Subjects with baseline eosinophils from 0 to 0.02×10^9/L (constituting less than 2% of all subjects analyzed) were censored from the primary analysis because of the inherent limitation to observe a decline from baseline.
Statistical analysis of the change from baseline was performed at month 6 to remove the effect of study dropouts in later months.
The source holds these as a separate data set.

Consider `CCCN[C@@H]1CCc2nc(N)sc2C1` [dexpramipexole, (6R)-2-amino-4,5,6,7-tetrahydro-6-(propylamino)benzothiazole], for which, in the series with eosinophils [1] (minipig, in vivo), the “safety assessment of eosinophil differences” value is on record as “not considered adverse”. Besides, in the series on eosinophils [1] (minipigs, 0, 7.5, 25 and 75 (50 from Study Day 46) mg/kg daily oral gavage, 39 weeks), the effect on eosinophils entry was “dose- and time-dependent reduction in eosinophils”. Besides, in the series with basophils, the “time at which basophil decline reached plateau” value is listed as ~4 month. In addition, the “mean eosinophils at week 16 recovered to, of baseline levels” value in the series on eosinophils [2] (150 mg/day group) amounted to 47%; in the series on eosinophils [2] (300 mg/day group), 73%. Moreover, the “effect on eosinophil counts” value in the series with eosinophils [2] (ALS subjects, Phase 2) is “dose- and time-dependent decrease in eosinophil counts”. Besides, the “effect on eosinophil counts in a subject with hypereosinophilia at baseline” value with eosinophils [2] (one Phase 2 subject, Part 2 baseline, persisted through month 12) is given as “decrease in eosinophil counts”. Moreover, the “circulating levels of eosinophils compared to vehicle-treated controls” value in the series on eosinophils [3] was “significantly reduced”. For the same molecule, the “infiltrating white blood cells in bronchoalveolar lavage fluid” value in series [4] is “dose-dependent decrease in infiltrating white blood cells”. For the same molecule, in series [5], the tolerability entry was “well-tolerated”. Further, in the series on eosinophils [6] (300 mg daily, after 8-12 weeks of treatment, persisted for the duration of the trial), the “effect on peripheral blood eosinophil count” value was “profound decrease”. Further, the “effect on eosinophil counts in a subject with elevated baseline eosinophil counts” value in the series with eosinophils [6] (Phase 3 subject with highest baseline eosinophil count, persisted through month 12) is recorded as “decrease in eosinophil counts”. In the series on eosinophils [6] (subjects (n=42) with baseline >0.25×10^9/L, after 6 months of treatment), the “decrease in eosinophil count in subjects with higher eosinophil counts” value was determined as 75%.
